We go through 13 compounds from ChEMBL document CHEMBL1201862, “PubChem BioAssay data set” (2004).

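Grown in 96-well plates, cells were treated for 48 hours with each compound at five concentrations. Insufficient inhibition: endpoint recorded as highest concentration tested. GI50 marks 50% less growth.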 Calls of active or inactive are those of the source. Cut-off read from the data, not from the text of the source: active = GI50 up to about 1.1 µM and inactive = higher. Bounds are passed on as bounds.

Test systems include SN12C; OVCAR-3; NCI-H226; HCT-15; HCT-116; RXF 393; A498; SF-268; SF-539; OVCAR-4; SW-620; SR; TK-10; HL-60; K562; PC-3; NCI/ADR-RES; MDA-MB-435; MDA-N; T47D.
Assay in all cases: growth of human tumour cells (NCI), 48 h

As for `O=C1C=C(Nc2ccccc2C(=O)c2ccccc2)c2ccccc2C1=O`, the GI50 in the test with SN12C was 42.8 µM (inactive); in the test on OVCAR-3 it was 70 µM (inactive); in the test with NCI-H226 it was > 100 µM (inactive); with HCT-15 it was 70.5 µM; in the test with HCT-116, > 100 µM (inactive); in the test on RXF 393, > 100 µM (inactive). Moreover, the GI50 is > 100 µM (inactive) in the test on A498; > 100 µM (inactive) in the test with SF-268; > 100 µM (inactive) in the test on SF-539; 89.3 µM (inactive) in the test with OVCAR-4; 87.9 µM (inactive) with SW-620; 48.1 µM (inactive) in the test with SR.

Turning to `O=C(CCc1nnc2s/c(=C\c3ccc(Cl)cc3Cl)c(=O)n12)Nc1cc(Cl)c(Cl)cc1Cl`, the GI50 with SN12C was > 10 µM (inactive); in the test on OVCAR-3, > 10 µM (inactive); with TK-10, 55.7 µM (inactive); with HL-60 it was > 100 µM (inactive); in the test with NCI-H226, > 10 µM (inactive); with HCT-15, over 10 µM. For the same compound, the GI50 in the test with HCT-116, in the test on RXF 393, in the test on K562, in the test on A498, in the test with SF-268 and in the test on SF-539 was > 10 µM (inactive) throughout. Also, the GI50 in the test on OVCAR-4, with SW-620 and with SR was > 10 µM (inactive) each time.

Consider `CCOC(=O)CNC(SC)=C(C#N)C#N`, for which the GI50 in the test on SN12C was > 100 µM (inactive); in the test with OVCAR-3, > 100 µM (inactive); with TK-10, > 100 µM (inactive); with HL-60, > 100 µM (inactive); with NCI-H226 it was > 100 µM (inactive); with HCT-15 it was over 100 µM. Also, the GI50 in the test on HCT-116, in the test with RXF 393, in the test on K562, in the test on A498, in the test on SF-268 and in the test with SF-539 was > 100 µM (inactive) each time. Also, the GI50 with OVCAR-4, with SW-620 and in the test on SR was > 100 µM (inactive) throughout.

Regarding `Cc1[nH]c2c(C)cccc2c1C1Cc2ccccc2N1` (configuration not stated), the GI50 is 21.2 µM (inactive) in the test on SN12C; 16.7 µM (inactive) in the test on OVCAR-3; 23 µM (inactive) in the test with TK-10; 19.8 µM (inactive) with HL-60; 23.8 µM (inactive) in the test on NCI-H226; 21.3 µM in the test on HCT-15. In addition, the GI50 is 17 µM (inactive) in the test with HCT-116; 10.7 µM (inactive) in the test with RXF 393; 29.2 µM (inactive) in the test with K562; 28.6 µM (inactive) in the test with A498; 20.5 µM (inactive) in the test on SF-268; 17.8 µM (inactive) in the test with SF-539. In addition, the GI50 in the test on SW-620 is 26.4 µM (inactive); with SR, 20.7 µM (inactive).

For the compound `Cn1c(=O)sc2cc(C(=S)N3CCCCC3)ccc21`, the GI50 in the test with SN12C is > 100 µM (inactive); with OVCAR-3, 69.2 µM (inactive); in the test with PC-3, 94.6 µM (inactive); with TK-10, > 100 µM (inactive); in the test on HL-60, 17.7 µM (inactive); in the test on NCI-H226, 18.6 µM (inactive). The GI50 in the test on HCT-15 was 93.8 µM; in the test with NCI/ADR-RES, 29.6 µM (inactive); with HCT-116, 89.7 µM (inactive); with RXF 393 it was 38.8 µM (inactive); in the test on K562, 47.9 µM (inactive); in the test with A498, 59.7 µM (inactive). Also, the GI50 was > 100 µM (inactive) in the test with MDA-MB-435; > 100 µM (inactive) in the test with MDA-N; 25.6 µM (inactive) in the test on SF-268; 54.5 µM (inactive) in the test with SF-539; > 100 µM (inactive) with SW-620; 22 µM (inactive) in the test with SR.

As for `O=C(NCCN1CCCCC1)c1cccc(I)c1`, the GI50 with SN12C, in the test on OVCAR-3, in the test on PC-3, in the test with TK-10, with HL-60 and in the test on NCI-H226 was > 100 µM (inactive) in each case. Also, the GI50 in the test on HCT-15 was over 100 µM; in the test with NCI/ADR-RES, > 100 µM (inactive); in the test with RXF 393, > 100 µM (inactive); with K562, > 100 µM (inactive); with A498, > 100 µM (inactive); in the test on SF-268 it was > 100 µM (inactive). Also, the GI50 in the test with SF-539, in the test on OVCAR-4, in the test on SW-620 and in the test on SR was > 100 µM (inactive) in each case.

With `COc1ccc(S(=O)(=O)N/N=C/CN2C(=O)c3ccccc3C2=O)cc1`, the GI50 with SN12C is > 100 µM (inactive); in the test with TK-10, > 10 µM (inactive); in the test with HL-60, > 100 µM (inactive); in the test with NCI-H226, 47 µM (inactive); in the test with HCT-15, over 100 µM; in the test with RXF 393, > 100 µM (inactive). Also, the GI50 in the test on K562, in the test with A498, in the test on SF-539, in the test on OVCAR-4, in the test with SW-620 and in the test on SR was > 100 µM (inactive) in each case.

Turning to `CC(=O)Nc1ccc(C2[C@H]3C(=O)N(c4ccc(Cc5ccc(N6C(=O)[C@@H]7ON(c8ccccc8)C(c8ccc(NC(C)=O)cc8)[C@@H]7C6=O)cc5)cc4)C(=O)[C@H]3ON2c2ccccc2)cc1` (some centres not stated), the GI50 with SN12C is > 100 µM (inactive); with OVCAR-3, > 100 µM (inactive); with TK-10, > 100 µM (inactive); with HL-60, > 100 µM (inactive); in the test on NCI-H226, > 100 µM (inactive); in the test with HCT-15 it was over 100 µM. Moreover, the GI50 with HCT-116, in the test with RXF 393, with K562, in the test on A498, with SF-268 and with SF-539 was > 100 µM (inactive) in each case. Further, the GI50 in the test with OVCAR-4, in the test with SW-620 and with SR was > 100 µM (inactive) each time.

For the compound `CCCNC(=S)N/C=C1/C(=O)Oc2ccccc2C1=O`, the GI50 in the test on SN12C is > 100 µM (inactive); with OVCAR-3 it was > 100 µM (inactive); with PC-3, > 100 µM (inactive); in the test on TK-10, > 100 µM (inactive); in the test on HL-60 it was 13.6 µM (inactive); with NCI-H226 it was > 100 µM (inactive). Further, the GI50 is over 100 µM in the test with HCT-15; > 100 µM (inactive) with NCI/ADR-RES; > 100 µM (inactive) in the test on HCT-116; 60.4 µM (inactive) with RXF 393; 88.9 µM (inactive) with A498; > 100 µM (inactive) with MDA-MB-435. Besides, the GI50 in the test on MDA-N, in the test on SF-268, in the test on SF-539, with OVCAR-4, with SW-620 and with SR was > 100 µM (inactive) throughout.

Regarding `O=C1c2ccccc2N2OC3(N4CCCC4)CCCCC3C12c1ccccc1` (configuration not stated), the GI50 in the test on SN12C is 16.9 µM (inactive); in the test on HL-60, 19.1 µM (inactive); in the test on NCI-H226, 37.3 µM (inactive); with HCT-15, 26.4 µM; in the test on HCT-116, 14.4 µM (inactive); in the test with RXF 393, 17.5 µM (inactive). Further, the GI50 is 19.5 µM (inactive) in the test with K562; > 100 µM (inactive) in the test on A498; 16.6 µM (inactive) with SF-268; 31.4 µM (inactive) in the test with SF-539; 14.5 µM (inactive) in the test on OVCAR-4; 17.7 µM (inactive) in the test with SW-620. Also, the GI50 with SR was 33.8 µM (inactive).

On to `CCOC(=O)C(CCCNC(=O)OC(C)(C)C)N(Cc1ccc(OC)cc1OC)C(=O)CC(=O)CP(=O)(OCC)OCC` (configuration not stated), for which the GI50 was > 100 µM (inactive) in the test with SN12C; > 100 µM (inactive) in the test with OVCAR-3; > 100 µM (inactive) in the test on TK-10; 97.7 µM (inactive) in the test on HL-60; > 100 µM (inactive) in the test with NCI-H226; > 100 µM (inactive) with HCT-116. In addition, the GI50 in the test with RXF 393, in the test with K562, with A498, in the test on SF-268, in the test on SF-539 and in the test with OVCAR-4 was > 100 µM (inactive) throughout. In the test with SR, the GI50 was 42.7 µM (inactive).

For the compound `N#CCc1n[nH]c2nc(SCc3ccccc3)nc(N3CCCCC3)c12`, the GI50 in the test with SN12C was 13 µM (inactive); in the test with OVCAR-3, 20.7 µM (inactive); in the test on PC-3, 18.8 µM (inactive); with TK-10, 23.1 µM (inactive); with HL-60, 25.8 µM (inactive); with HCT-15 it was 32.7 µM. Also, the GI50 in the test on NCI/ADR-RES is 17.6 µM (inactive); in the test on HCT-116 it was 17.7 µM (inactive); in the test with RXF 393, 17.1 µM (inactive); in the test with K562 it was 18.6 µM (inactive); in the test with T47D, 19.5 µM (inactive); with A498, 30.5 µM (inactive). Also, the GI50 with MDA-MB-435 was 19.9 µM (inactive); in the test with SF-268 it was 19.2 µM (inactive); in the test with SF-539 it was 21.4 µM (inactive); in the test on OVCAR-4, 19.5 µM (inactive); in the test on SW-620, 19.5 µM (inactive).

Regarding `COC(=O)/C=C1/CCC(C(=O)OC)N1` (configuration not stated), the GI50 with SN12C was > 100 µM (inactive); in the test with OVCAR-3, > 100 µM (inactive); in the test with TK-10, > 100 µM (inactive); in the test with HL-60 it was > 100 µM (inactive); in the test with HCT-15 it was over 100 µM; in the test with HCT-116, > 100 µM (inactive). The GI50 in the test with RXF 393, with K562, with A498, with SF-268, in the test on SF-539 and in the test with OVCAR-4 was > 100 µM (inactive) in each case. Further, the GI50 in the test with SW-620 and with SR was > 100 µM (inactive) in each case.
